For data set [1] the following is noted: metal oxinates; cited from earlier work.
Data set [2] can be described thus: precipitation of solubilised biocides on addition of a higher pH solution. In kind it is physicochemical. Conditions: aqueous solutions, pH raised to greater than 5. The text has this:
We carried out several studies, some in aqueous systems and others on wood subsequent to the biocide formulation being applied, wherein we applied a further solution with higher pH to increase the pH to greater than 5.

How the values of data set [3] were obtained:
These are prepared by addition of stoicheiometric quantities of precursors of the compounds concerned to produce the salt desired.

The conditions of data set [4]: cited from earlier work.
Data set [5] is classed as physicochemical. From the text:
We decreased the pH by addition of phosphorous acid.
We have achieved solubility of fenpropimorph of as much as 10% by weight. This high level of solubility remains when that active is also the presence of 10-20% of other biocides.

The subject of data set [6] is natural fungal inoculum on mini discs of Pinus radiata. The data set can be described thus: mini disc trial of fungicidal efficacy. In kind it is cell-based. The settings on record: compared with untreated control. The protocol:
For example, a mini disc trial, typically used to assess formulation efficacy, was used to establish relative efficacy of various formulations. Included in the trial were formulations using both phosphoric acid and phosphorous acid.
These examples were then diluted in water to produce stable solutions and then tested against a natural fungal inoculum on mini discs of Pinus radiata to determine fungicidal efficacy. The following table, Table 5, illustrates the relative performance of each biocide after 3 weeks in an incubator.
These formulations were then diluted and tested using the mini disc method. Also included was an industry standard based on the formulation of U.S. Pat. No. 4,950,685 coded in the trial as KC1 and listed in Table 7.
The formulations were then tested using a mini disc trial with results as disclosed in Table 9.

For data set [7] the following is noted: cited from earlier work. This is another data set of the same source.
A short description of data set [8]: solubility studies of oxine copper using the invention. In kind it is physicochemical. The text has this: We have carried out many solubility studies using the technology of this invention. For example, we are able to produce solutions stable at ambient temperature of oxine copper at concentrations greater than 100 grams per 200 mls of final product. Because the specific gravity of such solutions is approximately […] this yields a solution of oxine copper of 50 per cent weight/volume or more. This concentration is commercially viable to use and eliminates many of the potentially toxic or flammable formulation aids used in prior art solubilisation of oxine copper.

The conditions of data set [9]: acids including phosphorous acid; cited from earlier work.

In brackets after ≈: the same amount, converted by molar mass. Like-named read-outs stand apart in the source and are kept apart here.

Regarding `[Al+3].[O-]c1cccc2cccnc12.[O-]c1cccc2cccnc12.[O-]c1cccc2cccnc12` [Aluminium], in [1], the pH complete precipitation was 4.7-9.8 and the pH initial precipitation is on record as 2.9.

As to `[Cd]` [Cadmium], in data set [1], the pH complete precipitation is recorded as 5.5-13.2 and the pH initial precipitation is 4.5.

For `[Ca]` [Calcium], in [1], the pH complete precipitation is recorded as 9.2-12.7 and the pH initial precipitation is 6.8.

For the compound `COC(=O)Nc1nc2ccccc2[nH]1` [Carbendazim, methyl benzimidazoyl carbamate], the “effect of adding a solution of higher pH” value in [2] is “immediate precipitation”.

For `[Co+2].[O-]c1cccc2cccnc12.[O-]c1cccc2cccnc12` [Cobalt], in data set [3] (transition metal phosphites), the pH for dissolution was less than 4.5. Also, in data set [1], the pH complete precipitation was 4.9-11.6 and the pH initial precipitation is 3.6.

Compound `[Fe+3].[O-]c1cccc2cccnc12.[O-]c1cccc2cccnc12.[O-]c1cccc2cccnc12` [Iron] showed a pH for dissolution in [3] (transition metal phosphites) of less than 3.5. The “Solubility at pH = 7” value in [3] (transition metal phosphites, pH = 7) is recorded as “Insoluble”. For the same compound, in data set [1], the pH complete precipitation is listed as 4.1-11.2 and the pH initial precipitation is reported as 2.5.

As for `[O-]c1cccc2cccnc12.[O-]c1cccc2cccnc12.[Pb+2]` [Lead], in data set [1], the pH complete precipitation is reported as 8.4-12.3 and the pH initial precipitation is listed as 4.8.

With `[Mg]` [Magnesium], in data set [1], the pH complete precipitation is listed as more than 8.7 and the pH initial precipitation was 7.0.

`[Mn+2]` [Manganese]: in data set [3], the “Solubility at pH = 7” value is recorded as “Insoluble”. The pH for dissolution in data set [3] (transition metal phosphites) is less than 4.5. In [1], the pH complete precipitation is reported as 5.9-9.5 and the pH initial precipitation was 4.3.

For the compound `[Mo]` [Molybdenum], in data set [1], the pH complete precipitation is given as 3.6-7.3 and the pH initial precipitation was 2.0.

Regarding `[Ni+2].[O-]c1cccc2cccnc12.[O-]c1cccc2cccnc12` [Nickel], the pH for dissolution in [3] is less than 4.5. In addition, in data set [1], the pH complete precipitation is recorded as 4.6-10.0 and the pH initial precipitation was 3.5.

For `[O-]c1cccc2cccnc12.[O-]c1cccc2cccnc12.[Zn+2]` [Zinc], in data set [1], the pH complete precipitation is listed as more than 4.4 and the pH initial precipitation was 3.3.

Consider `CC(Cc1ccc(C(C)(C)C)cc1)CN1C[C@@H](C)O[C@@H](C)C1` (some centres unmarked) [fenpropimorph, dimethylethyl phenyl methylpropyl dimethylmorpholine], for which the Solubility is 7300 µg/mL (≈ 24100 µM) in data set [4] (pH 4.4), 4.3 µg/mL (≈ 14.2 µM) in data set [4] (pH 7) and 3.5 µg/mL (≈ 11.5 µM) in data set [4] (pH 9). The solubility achieved in [5] is recorded as not above 10 % by weight.

Consider `OP(O)O` [phosphorous acid], for which, in [6], the “fungicidal activity of phosphorous acid alone” value is recorded as “marginal improvement over the untreated control”.

As to Bismuth, in data set [1], the pH complete precipitation was 5.2-9.4 and the pH initial precipitation was 3.7.

Take Titanium: in data set [1], the pH complete precipitation is 4.8-8.6 and the pH initial precipitation is given as 3.6.

Turning to Tungsten, in [1], the pH complete precipitation was 5.0-5.7 and the pH initial precipitation is on record as 3.5.

Take arsenic: the “LD50 Rat” value in data set [7] is 15 to 293 mg/kg.

Regarding copper, the “Solubility at pH = 7” value in data set [3] is reported as “Insoluble”. Also, the pH for dissolution in data set [3] (transition metal phosphites) is recorded as less than 3.5. For the same compound, in [1], the pH complete precipitation is on record as more than 3.3 and the pH initial precipitation is on record as 3.0.

As for “copper 8-hydroxyquinolinolate [oxine copper]”, the “effect of adding a solution of higher pH” value in data set [2] is “immediate precipitation”. In data set [8] (ambient temperature), the solution concentration weight/volume is reported as not below 50 per cent weight/volume. Besides, the “concentration of solutions stable at ambient temperature” value in data set [8] (phosphorous acid solution) is reported as “greater than 100 grams per 200 mls of final product”. In addition, the “Oral LD50 Rat” value in data set [7] (in vivo, po) is listed as 10,000 mg/kg. Moreover, the pH complete precipitation entry in [1] is “greater than 3.3”.

In the case of mancozeb, the stability to acids entry in [9] was “decomposed by acids”.

With maneb, the stability to acids result in data set [9] is reported as “decomposed by acids”.

Consider phosethyl-Al, for which the stability to acids result in data set [9] is “decomposed by acids”.
